{"source": "the supplement of paper PMC10307832", "experiment_in_all_cases": "relative viability (nuclei count vs DMSO), 5 days (fraction); higher = more cells survive", "key": {"BAY61-3606 + OSI-027": {"compound": "COC1=C(C=C(C=C1)C2=CC3=NC=CN3C(=N2)NC4=C(C=CC=N4)C(=O)N)OC [BAY61-3606] + COc1cccc2cc(-c3nc([C@H]4CC[C@H](C(=O)O)CC4)n4ncnc(N)c34)[nH]c12 [OSI-027] (partner 0.5 µM)", "method_in_brief": "(§1)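 Five library-drug doses in √10 steps were combined with a fixed anchor-drug dose, or a single drug was given alone, by pin tool to lung cancer cell lines in 1536-well plates the day after seeding. Nuclei were stained and counted after 5 days. Relative viability is the nuclei count in treated wells over that in vehicle wells, taken as the median of duplicate plates.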"}, "BAY61-3606 + Phenformin": {"compound": "COC1=C(C=C(C=C1)C2=CC3=NC=CN3C(=N2)NC4=C(C=CC=N4)C(=O)N)OC [BAY61-3606] + N=C(N)NC(=N)NCCc1ccccc1 [Phenformin] (partner 250 µM)", "method_in_brief": "as §1"}, "Doxorubicin + Luminespib": {"compound": "COc1cccc2c1C(=O)c1c(O)c3c(c(O)c1C2=O)C[C@@](O)(C(=O)CO)C[C@@H]3O[C@H]1C[C@H](N)[C@H](O)[C@H](C)O1 [Doxorubicin] + CCNC(=O)c1noc(-c2cc(C(C)C)c(O)cc2O)c1-c1ccc(CN2CCOCC2)cc1 [Luminespib] (partner 0.01 µM)", "method_in_brief": "as §1"}, "BAY61-3606 + Olaparib": {"compound": "COC1=C(C=C(C=C1)C2=CC3=NC=CN3C(=N2)NC4=C(C=CC=N4)C(=O)N)OC [BAY61-3606] + O=C(c1cc(Cc2n[nH]c(=O)c3ccccc23)ccc1F)N1CCN(C(=O)C2CC2)CC1 [Olaparib] (partner 8 µM)", "method_in_brief": "as §1"}}, "data": [{"cell line": "UMC-11", "values": [{"measurement": "relative viability", "setting": "BAY61-3606 + OSI-027; first compound 0.02 µM", "result": 0.544}, {"measurement": "relative viability", "setting": "BAY61-3606 + OSI-027; first compound 0.06325 µM", "result": 0.467}, {"measurement": "relative viability", "setting": "BAY61-3606 + OSI-027; first compound 0.2 µM", "result": 0.476}, {"measurement": "relative viability", "setting": "BAY61-3606 + OSI-027; first compound 0.6325 µM", "result": 0.461}, {"measurement": "relative viability", "setting": "BAY61-3606 + OSI-027; first compound 2 µM", "result": 0.375}, {"measurement": "relative viability", "setting": "BAY61-3606 + Phenformin; first compound 0.02 µM", "result": 0.333}, {"measurement": "relative viability", "setting": "BAY61-3606 + Phenformin; first compound 0.06325 µM", "result": 0.339}, {"measurement": "relative viability", "setting": "BAY61-3606 + Phenformin; first compound 0.2 µM", "result": 0.334}, {"measurement": "relative viability", "setting": "BAY61-3606 + Phenformin; first compound 0.6325 µM", "result": 0.332}, {"measurement": "relative viability", "setting": "BAY61-3606 + Phenformin; first compound 2 µM", "result": 0.298}, {"measurement": "relative viability", "setting": "Doxorubicin + Luminespib; first compound 0.001 µM", "result": 0.998}, {"measurement": "relative viability", "setting": "Doxorubicin + Luminespib; first compound 0.003162 µM", "result": 1.12}, {"measurement": "relative viability", "setting": "Doxorubicin + Luminespib; first compound 0.01 µM", "result": 0.943}, {"measurement": "relative viability", "setting": "Doxorubicin + Luminespib; first compound 0.03162 µM", "result": 0.642}, {"measurement": "relative viability", "setting": "Doxorubicin + Luminespib; first compound 0.1 µM", "result": 0.601}, {"measurement": "relative viability", "setting": "BAY61-3606 + Olaparib; first compound 0.02 µM", "result": 0.351}, {"measurement": "relative viability", "setting": "BAY61-3606 + Olaparib; first compound 0.06325 µM", "result": 0.385}, {"measurement": "relative viability", "setting": "BAY61-3606 + Olaparib; first compound 0.2 µM", "result": 0.268}, {"measurement": "relative viability", "setting": "BAY61-3606 + Olaparib; first compound 0.6325 µM", "result": 0.643}, {"measurement": "relative viability", "setting": "BAY61-3606 + Olaparib; first compound 2 µM", "result": 0.266}]}]}
